How the values were obtained:
Caenorhabditis elegans [1] = test: C. elegans L1 nematicidal dose response, 5 day visual viability score (3-fold dilutions); assay type: in vivo; design: key: Dead: only stiff L1s (no movement); Dead (L4): worms are dead, but at a later larval stage; majority of worms are L1 (based on size); majority of worms are L2 (based on size); majority of worms are L3 (based on size); majority of worms are L4 (based on size); AD: majority of worms are adult; #AD: 5 adult worms or less; B!: sterile (0-25 progeny); B: low broodsize (25-100 progeny); ˜B: moderate broodsize (100-250 progeny); <: reduced broodsize (250-500 progeny); OK: no effect (˜1000+ progeny); conditions: for 5 Day Visual Score V4: 2.6 μM; for 5 Day Visual Score V5: 0.9 μM; for 5 Day Visual Score V3: 7.8 μM; for 5 Day Visual Score V2: 23.3 μM; for 5 Day Visual Score V1: 70 μM; for 5 Day Visual Score V6: 0.3 μM
Description: Caenorhabditis elegans adults were grown on Nematode Growth Medium (NGM) until they produced eggs, then the adults were removed.
The eggs were allowed to hatch, and the L1 larvae collected. See The Nematode Caenorhabditis elegans (1988) Cold Spring Harbor Laboratory Press. Using a Matrix Programmable Pipette, the L1s were distributed into 96-well tissue culture plates, 20 L1 in 50 μl NGM per well. Antibiotic/Antimyotic was added to each well, and 1% by weight E. coli strain HB101. The subject anthelmintic compounds were stored at 5 mM in 100% DMSO. 0.7 μl of compounds 1-31 were added to the left-most column of wells to yield a final concentration of 70 μM in 1.4% DMSO, with 1.4% DMSO only as the control. The compounds were then subjected to 5 more 3-fold dilutions from left to right to yield 6 column concentrations of 70 μM, 23.3 μM, 7.8 μM, 2.6 μM, 0.9 μM, and 0.3 μM. Plates were stored in air-tight Rubbermaid plastic boxes at 20° C. The nematodes had cleared all control wells by day 4, and nematode viability was scored by visual examination under a 100× dissecting microscope on day 5. A visual viability scoring system was used as follows:
Column VI has a compound concentration of 70 μM with sequential 3-fold dilutions reported in columns V2, V3, V4, V5, and V6, respectively, such that the V6 concentration was 0.3 μM.
(§1) The nematicidal activity of anthelmintic Compositions 48-68 were determined in accordance with the procedure outlined in Example 2.

Caenorhabditis elegans [2] = test: Initial HTS Run (mOD, % Run, visual score); conditions: in vivo
Description: as §1

Caenorhabditis elegans [3] = test: Follow-up HTS Run (mOD, % Run, visual score); conditions: in vivo
Description: as §1

[4] = Table 3, procedure of Example 2

SMILES | 5 Day Visual Score V4 (Caenorhabditis elegans [1]; scored day 5) | 5 Day Visual Score V5 (Caenorhabditis elegans [1]; scored day 5) | 5 Day Visual Score V3 (Caenorhabditis elegans [1]; scored day 5) | 5 Day Visual Score V2 (Caenorhabditis elegans [1]; scored day 5) | 5 Day Visual Score V1 (Caenorhabditis elegans [1]; scored day 5) | 5 Day Visual Score V6 (Caenorhabditis elegans [1]; scored day 5) | further results
CCCCOc1ccc(C(=O)N2CC(OCCCc3ccccc3)CC2C(=O)NCc2ccccc2Br)cc1 (centres unmarked) [AKC 102] | L3 | – | – | – | – | – | –
CCCCOc1ccc(-c2noc(C3CCC(NC(=O)c4ccc5c(c4)OCO5)CC3)n2)cc1 (centres unmarked) [AKC 103] | – | L4/#AD/B | Dead(L4) | Dead(L3/L4 | – | – | –
CCOc1ccccc1C1=NOC(c2cccc3ccccc23)C1C(=O)NCc1ccc(OC(F)(F)F)cc1 (centres unmarked) [AKC 105] | L2/Dead(L | L2/Dead(L | L2/Dead(L3) | L2/Dead(L3) | L2/Dead(L3) | – | –
O=C(Nc1ccc(OC(F)(F)F)cc1)NC1CCC(c2nc(-c3ccccc3)no2)CC1 (centres unmarked) [AKC 107] | Dead(L4) | – | – | Dead(L2/L3) | Dead | L2/Dead(L | –
O=C(Nc1ccc(Br)cc1)N1CCC(c2nc(-c3ccccc3)no2)CC1 [AKC 108] | L1 | – | L1 | Dead | Dead | – | –
O=C(NCCc1ccccc1F)C1C(c2ccccc2Cl)=NOC1c1ccc(-c2ccccc2)cc1 (centres unmarked) [AKC 110] | L1 | L1 | L1 | L1 | L1 | L1 | –
COc1ccccc1-c1noc(C(C)CNC(=O)Nc2ccc(OC(F)(F)F)cc2)n1 (centres unmarked) [AKC 111] | Dead(L3/L | – | L2 | Dead | Dead | OK (no effect (˜1000+ progeny)) | –
Cc1ccc(-c2noc(C3CCC(CNC(=O)Nc4ccc(OC(F)(F)F)cc4)CC3)n2)cc1C (centres unmarked) [AKC 112] | – | #AD/˜B | – | – | – | OK (no effect (˜1000+ progeny)) | –
O=C(NCC1CCC(c2nc(-c3ccccc3)no2)CC1)Nc1ccc(OC(F)(F)F)cc1 (centres unmarked) [AKC 113] | Dead(L2/L | – | Dead | Dead | Dead | L4/#AD/B | –
O=C(Nc1ccc(Br)cc1)NC1CCC(c2nc(-c3ccccc3)no2)CC1 (centres unmarked) [AKC 114] | L3/Dead(L | – | L3 | L3/Dead(L4) | Dead | – | –
O=C(NCCCCCc1nc(-c2ccccc2)no1)Nc1ccc(OC(F)(F)F)cc1 [AKC 115] | Dead(L2) | Dead(L2/L | L2/Dead(L2) | Dead(L2/L3) | Dead | – | –
CC(C)(C)C1=NOC(c2ccc(-c3ccccc3)cc2)C1C(=O)NCCc1ccccc1F (centres unmarked) [AKC 120] | – | #AD/˜B | L1 | – | L1 | OK (no effect (˜1000+ progeny)) | –
COc1ccc(C2=NOC(c3ccc(-c4ccccc4)cc3)C2C(=O)NCCc2ccccc2F)cc1 (centres unmarked) [AKC 121] | #AD/˜B | – | – | L1 | L1 | – | –
CCOc1ccc(C2ON=C(c3ccc(F)cc3)C2C(=O)NCCc2ccc(F)cc2)cc1 (centres unmarked) [AKC 122] | – | – | – | L1 | Dead | OK (no effect (˜1000+ progeny)) | –
CCOc1ccc(C2ON=C(c3ccc(N(C)C)cc3)C2C(=O)NCCc2ccc(F)cc2)cc1 (centres unmarked) [AKC 123] | – | – | – | – | L1 | #AD/˜B | –
CCOc1cccc(C2ON=C(c3ccccc3OCC)C2C(=O)NCCc2ccc(OC)c(OCC)c2)c1 (centres unmarked) [AKC 124] | L4/#AD/B | L4/#AD/B | – | – | – | L4/#AD/B | –
CCOc1cccc(C2ON=C(c3ccccc3OCC)C2C(=O)NCc2ccc(OC(F)(F)F)cc2)c1 (centres unmarked) [AKC 125] | L2 | – | L2 | L2/Dead(L4) | L2/Dead(L3) | – | –
CCCCOc1ccc(C(=O)N2CC(OCCCc3ccccc3)CC2C(=O)NCc2ccccc2OC)cc1 (centres unmarked) [AKC 126] | #AD/˜B | – | – | – | – | #AD/˜B | –
Cc1ccc(C(CC(=O)c2ccccc2)Nc2ccc(I)cc2)o1 (centres unmarked) [AKC 128] | L1 | #AD/˜B | Dead | Dead | Dead | OK (no effect (˜1000+ progeny)) | –
Cc1ccc(C(CC(=O)c2ccccc2)Nc2ccc(I)cc2F)o1 (centres unmarked) [AKC 129] | – | OK (no effect (˜1000+ progeny)) | – | Dead | Dead | – | –
CCC(=O)C(C)C(Nc1cc(Br)c(C)c(Br)c1)c1ccc(C)o1 (centres unmarked) [AKC 131] | #AD/˜B | #AD/˜B | #AD/˜B | L1 | Dead | – | –
CCCc1ccc(C(Nc2ccc(-c3ccccc3)cc2)C2CCCCC2=O)cc1 (centres unmarked) [AKC 132] | – | – | Dead | Dead | Dead(L2) | Dead | –
Fc1ccc(N2CCN(c3nc(NCc4ccc(C(F)(F)F)cc4)ns3)CC2)cc1 [AKC 135] | – | – | – | L1 | Dead | – | –
CC(C)(C)c1csc(NC(=O)Cc2cn(Cc3ccccc3Cl)c3ccc(Cl)cc23)n1 [AKC 157] | – | – | – | – | – | – | Initial HTS Run % Run (Caenorhabditis elegans [2]): 98%; Initial HTS Run mOD (Caenorhabditis elegans [2]): 120 mOD; 5 Day Visual Score V6 (Caenorhabditis elegans [1]; [4]): OK (no effect (˜1000+ progeny)); 5 Day Visual Score V5 (Caenorhabditis elegans [1]; [4]): OK (no effect (˜1000+ progeny)); 5 Day Visual Score V4 (Caenorhabditis elegans [1]; [4]): < (reduced broodsize (250-500 progeny)); 5 Day Visual Score V3 (Caenorhabditis elegans [1]; [4]): < (reduced broodsize (250-500 progeny)); 5 Day Visual Score V2 (Caenorhabditis elegans [1]; [4]): OK (no effect (˜1000+ progeny)); Follow-up HTS Run % Run (Caenorhabditis elegans [3]): 108%; Follow-up HTS Run mOD (Caenorhabditis elegans [3]): 174 mOD
CC(C)(C)c1csc(NC(=O)Cc2cn(Cc3cccnc3)c3ccc(Cl)cc23)n1 [AKC 162] | – | – | – | – | – | – | Initial HTS Run % Run (Caenorhabditis elegans [2]): 111%; Initial HTS Run Visual Score (Caenorhabditis elegans [2]): L2/L3/1AD/B!; Initial HTS Run mOD (Caenorhabditis elegans [2]): 136 mOD; 5 Day Visual Score V6 (Caenorhabditis elegans [1]; [4]): OK (no effect (˜1000+ progeny)); 5 Day Visual Score V5 (Caenorhabditis elegans [1]; [4]): OK (no effect (˜1000+ progeny)); 5 Day Visual Score V4 (Caenorhabditis elegans [1]; [4]): OK (no effect (˜1000+ progeny)); 5 Day Visual Score V3 (Caenorhabditis elegans [1]; [4]): OK (no effect (˜1000+ progeny)); 5 Day Visual Score V2 (Caenorhabditis elegans [1]; [4]): OK (no effect (˜1000+ progeny)); 5 Day Visual Score V1 (Caenorhabditis elegans [1]; [4]): < (reduced broodsize (250-500 progeny)); Follow-up HTS Run % Run (Caenorhabditis elegans [3]): 111%; Follow-up HTS Run Visual Score (Caenorhabditis elegans [3]): B (low broodsize (25-100 progeny)); Follow-up HTS Run mOD (Caenorhabditis elegans [3]): 179 mOD
CCC1CCCCN1c1cc(Oc2ccc3oc4ccccc4c3c2)ncn1 (centres unmarked) [AKC 340] | – | – | – | L1 | L1 | – | –
O=C(NCCc1ccccc1F)C1C(c2ccc(F)cc2)=NOC1c1ccc(-c2ccccc2)cc1 (centres unmarked) [AKC 2153] | – | – | – | L1 | L1 | – | –

Source: patent publication US20020016330A1, “Materials and methods for killing nematodes and nematode eggs” (priority 2000, published 2002)
